In the supplement of paper PMC10307832:

What was measured:
Test in all cases: relative viability (nuclei count vs DMSO), 5 days (fraction); higher = more cells survive
NCI-H1666 = test system: NCI-H1666
Summary of the method: (§1)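 Lung cancer cell lines, seeded in 1536-well plates, were treated the following day by pin tool with a single drug or with five library-drug doses (not always all listed) in √10 steps on top of a fixed anchor-drug dose. Cells were fixed and nuclei stained in one step after 5 days, and nuclei were counted. Relative viability is the nuclei count for treated wells divided by that for vehicle wells, reported as medians of duplicate plates.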

ABC-1 = test system: ABC-1
Summary of the method: as §1

NCI-H2126 = test system: NCI-H2126
Summary of the method: as §1

SK-LU-1 = test system: SK-LU-1
Summary of the method: as §1

LU99A = test system: LU99A
Summary of the method: as §1

RERF-LC-KJ = test system: RERF-LC-KJ
Summary of the method: as §1

NCI-H1755 = test system: NCI-H1755
Summary of the method: as §1

NCI-H322M = test system: NCI-H322M
Summary of the method: as §1

LXF-289 = test system: LXF-289
Summary of the method: as §1

NCI-H1792 = test system: NCI-H1792
Summary of the method: as §1

NCI-H1395 = test system: NCI-H1395
Summary of the method: as §1

CAL-12T = test system: CAL-12T
Summary of the method: as §1

HCC-44 = test system: HCC-44
Summary of the method: as §1

NCI-H1793 = test system: NCI-H1793
Summary of the method: as §1

NCI-H520 = test system: NCI-H520
Summary of the method: as §1

NCI-H1944 = test system: NCI-H1944
Summary of the method: as §1

NCI-H358 = test system: NCI-H358
Summary of the method: as §1

NCI-H3122 = test system: NCI-H3122
Summary of the method: as §1

LCLC-103H = test system: LCLC-103H
Summary of the method: as §1

HCC-827 = test system: HCC-827
Summary of the method: as §1

NCI-H2347 = test system: NCI-H2347
Summary of the method: as §1

In the case of CCNC(=O)c1noc(-c2cc(C(C)C)c(O)cc2O)c1-c1ccc(CN2CCOCC2)cc1 [Luminespib] + C[C@]1(O)C[C@@H](c2nc(-c3ccc4ccc(-c5ccccc5)nc4c3)c3c(N)nccn32)C1 [Linsitinib] (partner 1 µM), the relative viability (NCI-H1666; first compound 0.002 µM) is reported as 0.707, the relative viability (NCI-H1666; first compound 0.006325 µM) is reported as 0.785 and the relative viability (NCI-H1666; first compound 0.02 µM) is reported as 0.751. For the same molecule, the relative viability (NCI-H1666; first compound 0.06325 µM) was 0.803, the relative viability (NCI-H1666; first compound 0.2 µM) was 0.511 and the relative viability (ABC-1; first compound 0.002 µM) was 0.869. It also gave a relative viability (ABC-1; first compound 0.006325 µM) of 0.941, a relative viability (ABC-1; first compound 0.02 µM) of 0.676 and a relative viability (ABC-1; first compound 0.06325 µM) of 0.257. It also gave a relative viability (ABC-1; first compound 0.2 µM) of 0.227, a relative viability (NCI-H2126; first compound 0.002 µM) of 0.686 and a relative viability (NCI-H2126; first compound 0.006325 µM) of 0.652. It also gave a relative viability (NCI-H2126; first compound 0.02 µM) of 0.536, a relative viability (NCI-H2126; first compound 0.06325 µM) of 0.761 and a relative viability (NCI-H2126; first compound 0.2 µM) of 0.741. The relative viability (SK-LU-1; first compound 0.002 µM) was 1.02, the relative viability (SK-LU-1; first compound 0.006325 µM) was 0.89 and the relative viability (SK-LU-1; first compound 0.02 µM) was 0.474. It also gave a relative viability (SK-LU-1; first compound 0.06325 µM) of 0.193, a relative viability (SK-LU-1; first compound 0.2 µM) of 0.178 and a relative viability (LU99A; first compound 0.002 µM) of 0.574. For the same molecule, the relative viability (LU99A; first compound 0.006325 µM) was 0.486, the relative viability (LU99A; first compound 0.02 µM) was 0.357 and the relative viability (LU99A; first compound 0.06325 µM) was 0.172. The relative viability (LU99A; first compound 0.2 µM) was 0.144, the relative viability (RERF-LC-KJ; first compound 0.002 µM) was 0.9 and the relative viability (RERF-LC-KJ; first compound 0.006325 µM) was 0.846. It also gave a relative viability (RERF-LC-KJ; first compound 0.02 µM) of 0.976, a relative viability (RERF-LC-KJ; first compound 0.06325 µM) of 0.968 and a relative viability (RERF-LC-KJ; first compound 0.2 µM) of 0.366. The relative viability (NCI-H1755; first compound 0.002 µM) was 0.974, the relative viability (NCI-H1755; first compound 0.006325 µM) was 0.944 and the relative viability (NCI-H1755; first compound 0.02 µM) was 0.98. For the same molecule, the relative viability (NCI-H1755; first compound 0.06325 µM) was 0.946, the relative viability (NCI-H1755; first compound 0.2 µM) was 0.921 and the relative viability (NCI-H322M; first compound 0.002 µM) was 0.805. It also gave a relative viability (NCI-H322M; first compound 0.006325 µM) of 0.851, a relative viability (NCI-H322M; first compound 0.02 µM) of 0.725 and a relative viability (NCI-H322M; first compound 0.06325 µM) of 0.998. The relative viability (NCI-H322M; first compound 0.2 µM) was 0.963, the relative viability (LXF-289; first compound 0.002 µM) was 0.952 and the relative viability (LXF-289; first compound 0.006325 µM) was 0.879. The relative viability (LXF-289; first compound 0.02 µM) was 1.12, the relative viability (LXF-289; first compound 0.06325 µM) was 0.711 and the relative viability (LXF-289; first compound 0.2 µM) was 0.151. For the same molecule, the relative viability (NCI-H1792; first compound 0.002 µM) was 0.444, the relative viability (NCI-H1792; first compound 0.006325 µM) was 0.469 and the relative viability (NCI-H1792; first compound 0.02 µM) was 0.212. The relative viability (NCI-H1792; first compound 0.06325 µM) was 0.297, the relative viability (NCI-H1792; first compound 0.2 µM) was 0.106 and the relative viability (NCI-H1395; first compound 0.002 µM) was 1.06. For the same molecule, the relative viability (NCI-H1395; first compound 0.006325 µM) was 1.02, the relative viability (NCI-H1395; first compound 0.02 µM) was 0.759 and the relative viability (NCI-H1395; first compound 0.06325 µM) was 0.772. For the same molecule, the relative viability (NCI-H1395; first compound 0.2 µM) was 0.326, the relative viability (CAL-12T; first compound 0.002 µM) was 0.761 and the relative viability (CAL-12T; first compound 0.006325 µM) was 0.787. For the same molecule, the relative viability (CAL-12T; first compound 0.02 µM) was 0.72, the relative viability (CAL-12T; first compound 0.06325 µM) was 0.128 and the relative viability (CAL-12T; first compound 0.2 µM) was 0.115. The relative viability (HCC-44; first compound 0.002 µM) was 0.68, the relative viability (HCC-44; first compound 0.006325 µM) was 0.714 and the relative viability (HCC-44; first compound 0.02 µM) was 0.684. The relative viability (HCC-44; first compound 0.06325 µM) was 0.251, the relative viability (HCC-44; first compound 0.2 µM) was 0.158 and the relative viability (NCI-H1793; first compound 0.002 µM) was 0.831. It also gave a relative viability (NCI-H1793; first compound 0.006325 µM) of 0.798, a relative viability (NCI-H1793; first compound 0.02 µM) of 0.326 and a relative viability (NCI-H1793; first compound 0.06325 µM) of 0.16. For the same molecule, the relative viability (NCI-H1793; first compound 0.2 µM) was 0.147, the relative viability (NCI-H520; first compound 0.002 µM) was 1.27 and the relative viability (NCI-H520; first compound 0.006325 µM) was 0.966. The relative viability (NCI-H520; first compound 0.02 µM) was 0.94, the relative viability (NCI-H520; first compound 0.06325 µM) was 0.134 and the relative viability (NCI-H520; first compound 0.2 µM) was 0.121. It also gave a relative viability (NCI-H1944; first compound 0.002 µM) of 1.21, a relative viability (NCI-H1944; first compound 0.006325 µM) of 1.1 and a relative viability (NCI-H1944; first compound 0.02 µM) of 0.791. The relative viability (NCI-H1944; first compound 0.06325 µM) was 1.07, the relative viability (NCI-H1944; first compound 0.2 µM) was 1.09 and the relative viability (NCI-H358; first compound 0.002 µM) was 0.828. The relative viability (NCI-H358; first compound 0.006325 µM) was 0.654, the relative viability (NCI-H358; first compound 0.02 µM) was 0.649 and the relative viability (NCI-H358; first compound 0.06325 µM) was 0.129. For the same molecule, the relative viability (NCI-H358; first compound 0.2 µM) was 0.111, the relative viability (NCI-H3122; first compound 0.002 µM) was 0.936 and the relative viability (NCI-H3122; first compound 0.006325 µM) was 0.973. The relative viability (NCI-H3122; first compound 0.02 µM) was 0.945, the relative viability (NCI-H3122; first compound 0.06325 µM) was 0.172 and the relative viability (NCI-H3122; first compound 0.2 µM) was 0.146. For the same molecule, the relative viability (LCLC-103H; first compound 0.002 µM) was 1.14, the relative viability (LCLC-103H; first compound 0.006325 µM) was 0.971 and the relative viability (LCLC-103H; first compound 0.02 µM) was 1.1. It also gave a relative viability (LCLC-103H; first compound 0.06325 µM) of 1.03, a relative viability (LCLC-103H; first compound 0.2 µM) of 1.04 and a relative viability (HCC-827; first compound 0.002 µM) of 0.922. For the same molecule, the relative viability (HCC-827; first compound 0.006325 µM) was 0.925, the relative viability (HCC-827; first compound 0.02 µM) was 0.937 and the relative viability (HCC-827; first compound 0.06325 µM) was 0.974. For the same molecule, the relative viability (HCC-827; first compound 0.2 µM) was 1.02, the relative viability (NCI-H2347; first compound 0.002 µM) was 1.03 and the relative viability (NCI-H2347; first compound 0.02 µM) was 0.824. For the same molecule, the relative viability (NCI-H2347; first compound 0.06325 µM) was 0.924 and the relative viability (NCI-H2347; first compound 0.2 µM) was 0.404.
